From patent US6780854B2, “Orally active androgens” (Akzo Nobel NV, priority 1999, dated 2004)

Experiments:
serum LH = assay: LH suppression assay: determination of oral activity; format: in vivo; settings: Rattus norvegicus; mature male castrated rats; po daily for 4 days in arachis oil; serum LH 3 hours after last oral dose; read-out: ED50 (po) required to suppress serum LH for 50% (±10%)
Protocol: The LH Suppression Assay: Determination of Oral Activity
The in vivo potency (po) of several androgens of the invention was determined in a mature male castrated rat model, in comparison wih Segaloff compound. In this model serum LH is high (50× fold higher than with intact rats, due to the absence of the negative feedback of testicular testosterone). These rats are po treated for 4 days daily with a given compound of the invention in a suspension fluid of arachis oil. Before dosing and 3 hours after the last oral dose blood is collected via tail vene and in the serum LH is determined. Potency (po) of the androgens (ED50) are expressed as the amount (mg/kg) of androgen which suppresses serum LH for 50% (±10%).
The rat LH Time-Resolved Immuno Fluorometric Assay (TR-IFMA) has been developed in house using home made reagents, a monoclonal catching antibody directed against the β-subunit of human chorion gonadotrophin (hCG, which cross react with rat β-subunit) and a biotin labelled detecting antibody (rabbit polyclonal antibody directed against the alfa-subunit of recombinant rat LH). Recombinant rat LH was prepared according to the methods described by Hakola et al (1997). In this two-site-IFMA, only intact rat LH is determined by a final incubation with streptavidin-europium. The detection in the IFMA is based on fluorescence of the lanthanide europium during a relative long exitation period. The concentration range of rat LH standard is 0.001-10 ng/ml, for optimal accuracy measurements of serum LH serum samples were diluted 8-times with assay buffer [Hakola, K., Boogaart, P. V., Mulders, J., de Leeuw, R., Schoonen, W., Heyst, J. V., Swolfs, A., Casteren, J. V., Huhtaniemi, I., and Kloosterboer, H. J., Recombinant rat luteinizing hormone; production by Chinese hamster ovary cells, purification and functional characterization, Molecular & Cellular Endocrinology 128, 47 (1997)].

[1] = t1/2 after incubation with human hepatocytes (metabolic stability); format: in vitro ADME; settings: male, cryopreserved human hepatocytes in suspension; 10 nM compound; cryopreserved human hepatocyte suspension, 37° C.; incubations stopped after 0.5, 1 and 3 h; LC-MS/MS
Protocol: Determination of t1′2 of Androgens of the Invention after Incubation with Human Hepatocytes
The half-life of a compound as a result of contact with human hepatocytes holds as a reliable indication of metabolic stability. As it is well known that the absorption of this class of steroids is high, this assay provides an in vitro model for oral activity in humans.
Hepatocytes collected from healthy young (25-45 year) male organ donors were cryo preserved in liquid nitrogen and kept there until use. They were thawed at 37° C. in a waterbath, placed immediately on ice, washed twice in one volume of cold (4° C.) incubation medium [William's medium E (without phenol red) with Glutamax I®, gentamicin 50 μg/ml, insulin 1 μM, hydrocortisone hemisuccinate 10 μM, fetal calf serum 0% (v/v)], counted and the viability checked by Trypan blue exclusion. Cells were incubated as suspensions in 12-wells (non-coated) plates at a nominal density of 0.5×10^6 cells/well in 1.5 ml medium at 37° C. with an air/O2/CO2 mixture (55/40/5). The plates were set on an orbital shaker at approximately 10 rpm.
The hepatocytes were incubated with 10 nM final concentration of the compound to be tested. The incubations were stopped after 0.5, 1 and 3 h by pipetting the whole incubation mixture into a glass tube and adding one volume of acetone on ice. The acetone was dried under a nitrogen flow at room temperature, the volume adjusted to 1.5 ml and the tubes were centrifuged at 4° C. at 10.000×g for 30 min. The de-proteinized supernatants were collected for LC-MS/MS analysis.

Compound	ED50 (serum LH) [mg/kg]	half-life at 10 nM [1] [h]
CC[C@@H]1CC2=CC(=O)CC[C@@H]2[C@H]2CC[C@@]3(C)C(=CC[C@@H]3O)[C@H]12 [Example 1a, (7α,17β)-7-Ethyl-17-hydroxyestra-4,14-dien-3-one]	0.2	2.62
C=C[C@@H]1CC2=CC(=O)CC[C@@H]2[C@H]2CC[C@@]3(C)C(=CC[C@@H]3O)[C@@H]21 [Example 2, (7α,17β)-7-Ethenyl-17-hydroxyestra-4,14-dien-3-one]	0.5	0.667
C[C@@H]1CC2=CC(=O)CC[C@@H]2[C@H]2CC[C@@]3(C)C(=CC[C@@H]3O)[C@@H]21 [Segaloff compound, (7α,17β)-7-Methyl-17-hydroxyestra-4,14-dien-3-one, reference compound]	5	1
